Experimental data published in patent publication US20240300959A1, “BALASUBRAMIDE DERIVATIVE AND USE THEREOF IN PREPARATION OF MEDICINE FOR TREATING ACUTE LUNG INJURY” (Guangdong Pharmaceutical University, priority 2023, published 2024).
Where “and” joins values, the source holds several entries; their conditions need not be identical. Equal values may be shown once. Read-outs that look alike come from different tables or passages of the source.

What was measured:
RAW264.7 cells [1] = assay: CCK-8 cell viability of RAW264.7 macrophages at different concentrations of (+)3C-20 (LPS experiment); assay type: cell-based, mice; details: RAW264.7 cell viability
Experimental: (§1) RAW264.7 cells were inoculated into a 96-well plate at a density of 1×10^5 per well. When the cell density was 70%-80%, the RAW264.7 cells were pretreated with (+)3C-20 ([…]). After 3 h, lipopolysaccharide (LPS, 100 ng/mL) was added into all wells for action for 2 h except for a control group. The expression level of an inflammatory factor TNF-α in a cell supernatant was detected according to an operation instruction of a commercial ELISA kit, and the cell viability at different administration concentrations of (+)3C-20 was determined according to an operation instruction of a CCK-8 kit.

[2] = tested on: mice with acute lung injury caused by intratracheal instillation of lipopolysaccharide; assay: Survival rate of mice with acute lung injury caused by intratracheal instillation of LPS; assay type: in vivo, ICR mice; details: 50 mg/kg, LPS 20 mg/kg it, checked up to 72 h
Experimental: Grouping and administration of animals: 45 male ICR mice were randomly divided into 5 groups according to the body weight, including a control group, a model group, a positive dexamethasone (5 mg/kg) group, a (+)3C-20 (10 mg/kg) group and a (+)3C-20 (50 mg/kg) group, with 9 mice in each group. Drug preparation, an administration method and a modeling method were the same as those in Example 7. With the time of intratracheal instillation of LPS as 0 h, the survival state of the mice was checked at the time points of 4 h, 12 h, 16 h, 20 h, 24 h, 36 h, 48 h, 60 h and 72 h, and a survival curve was drawn based on statistics. Results are shown in FIG. 13 (where compared with LPS (20 mg/kg), ***P is less than 0.001).

RAW264.7 cells [3] = assay: Cytotoxicity test, CCK-8 cell viability of RAW264.7 cells (24 h); assay type: cell-based, mice; details: 10 μM, RAW264.7 cell viability
Experimental: RAW264.7 cells were inoculated into a 96-well plate at a density of 1×10^5 per well. When the cell density was 70%-80%, the RAW264.7 cells were pretreated with 10 mM working solutions prepared from 18 balasubramide derivatives at a final concentration of 10 μM for 24 h, and then the cell viability was determined by a CCK-8 method.

[4] = tested on: mice with sepsis and lung injury caused by intraperitoneal injection of lipopolysaccharide; assay: Acute lung injury caused by sepsis (intraperitoneal injection of lipopolysaccharide); assay type: in vivo, ICR mice; details: for Content of TNF-α in serum (% of Model) / Area percentage of alveolar cells (%): 6 h after i.p. LPS; for Area percentage of alveolar cells (%): H&E lung sections; for Change multiple of IL-1β / Change multiple of IL-6 / Change multiple of TNF-α / Change multiple of iNOS: lung tissue RT-PCR; for Lung index (%): 6 h after i.p. LPS 10 mg/kg; for Body weight (Day 1) / Body weight (Day 2) / Body weight (Day 3): i.p. LPS sepsis model, in g (unit assumed)
Experimental: Administration and grouping of animals: Male ICR mice were used as experimental animals, which were randomly divided into a control group, a model group, a positive administration group and administration groups according to the body weight. The control group and the model group were administered with a solvent by intraperitoneal injection (the solvent was prepared from DMSO, Kolliphor HS15 and Saline at a ratio of 1:2:7), the positive administration group was administered with 5 mg/kg dexamethasone (DEX) by intraperitoneal injection, and the administration groups were administered with (+)3C-20 at a concentration of 10 mg/kg and 50 mg/kg, respectively, by intraperitoneal injection. The dexamethasone and the (+)3C-20 were dissolved in the above solvent and were clear and transparent. The administration was continued for 3 days. 2 h after the last administration, all the other groups were administered with LPS (10 mg/kg) by intraperitoneal injection while the control group was administered with an equal volume of normal saline by intraperitoneal injection. Body weight and lung index: The mice were weighed and randomly divided on day 1 and continuously weighed for 3 days before administration, and growth conditions of the mice were measured by statistics. The mice were administered with LPS by intraperitoneal injection 2 h after administration on day 3, then the mice were dissected 6 h later, and the lungs were taken, weighed and recorded.
On day 3, 6 h after the intraperitoneal injection of LPS, whole blood was collected from eye sockets and then subjected to centrifugation to prepare serum, and the serum was frozen at −80° C. The lungs were subjected to perfusion with PBS and fixed by paraformaldehyde, and the fixed lungs were stained with hematoxylin-eosin (H&E) after dehydration, paraffin embedding and sectioning. The serum was tested by a commercial TNF-α ELISA kit. Histopathological results and data statistics are shown in FIG. 7-1, FIG. 7-2 and Table 7.
A small amount of frozen lung tissues were taken and fully ground, and the expression of inflammation related genes in the lung tissues was detected by an RT-PCR technology according to an operation instruction of an RNA extraction kit.

[5] = tested on: TNF-α in RAW264.7 macrophages stimulated by lipopolysaccharide; assay: TNF-α ELISA in cell supernatant of LPS-stimulated RAW264.7 macrophages; assay type: cell-based, mice
Experimental: RAW264.7 cells were inoculated into a 96-well plate at a density of 1×10^5 per well. When the cell density was 70%-80%, 18 balasubramide derivatives were prepared into 10 mM working solutions with DMSO, respectively, and then used to pretreat mononuclear macrophages RAW264.7 of mice at a final concentration of 10 μM. After 3 h, lipopolysaccharide (LPS, 100 ng/mL) was added into all wells for action for 2 h except for a control group. A supernatant was collected for later use, and the expression level of an inflammatory factor TNF-α in the cell supernatant was detected according to an operation instruction of a commercial ELISA kit.
as §1

What does the source list for O=C(CCc1ccc(C(F)(F)F)cc1)O[C@@H]1C(=O)NCCc2c([nH]c3ccccc23)[C@H]1c1ccc(C(F)(F)F)cc1 [(+)-3C-20]?
Percentage of CCK-8 in a model group (%) (RAW264.7 cells [1]; 0.1 μM): 108.6 ± 1.49%; Percentage of CCK-8 in a model group (%) (RAW264.7 cells [1]; 0.5 μM): 106.11 ± 2.44%; Percentage of CCK-8 in a model group (%) (RAW264.7 cells [1]; 1 μM): 106.01 ± 1.75%; Percentage of CCK-8 in a model group (%) (RAW264.7 cells [1]; 2 μM): 106.41 ± 3.04%; Percentage of CCK-8 in a model group (%) (RAW264.7 cells [1]; 5 μM): 105.55 ± 1.06%; Percentage of CCK-8 in a model group (%) (RAW264.7 cells [1]; 10 μM): 96.64 ± 1.45%; Percentage of CCK-8 in a model group (%) (RAW264.7 cells [1]; 20 μM): 95.83 ± 2.29%; survival rate of the model mice, in words [2]: can obviously improve the survival rate; Percentage of CCK-8 in a model group (%) (RAW264.7 cells [3]): 103.97 ± 3.88% and 95.04 ± 3.22%; Content of TNF-α in serum (% of Model) ([4]; 10 mg/kg i.p.): 78.38 ± 11.32 ^ % of Model; Area percentage of alveolar cells (%) ([4]; 10 mg/kg i.p.): 38.68 ± 3.73%; Change multiple of IL-1β ([4]; 10 mg/kg i.p., i.p. LPS): 9.68 ± 0.67; Change multiple of IL-6 ([4]; 10 mg/kg i.p., i.p. LPS): 47.5 ± 7.38; Change multiple of TNF-α ([4]; 10 mg/kg i.p., i.p. LPS): 10.58 ± 1.72; Change multiple of iNOS ([4]; 10 mg/kg i.p., i.p. LPS): 12.44 ± 1.28 ^; Lung index (%) ([4]; 10 mg/kg intraperitoneal 3 days): 0.714 ± 0.02 ^ %; Body weight (Day 1) ([4]; 10 mg/kg intraperitoneal): 25.42 ± 1.1; Body weight (Day 2) ([4]; 10 mg/kg intraperitoneal): 25.46 ± 1.2; Body weight (Day 3) ([4]; 10 mg/kg intraperitoneal): 25.77 ± 1.03; Content of TNF-α in serum (% of Model) ([4]; 50 mg/kg i.p.): 55.06 ± 5.96 % of Model; Area percentage of alveolar cells (%) ([4]; 50 mg/kg i.p.): 30.43 ± 2.41 %; Change multiple of IL-1β ([4]; 50 mg/kg i.p., i.p. LPS): 10.13 ± 1.72; Change multiple of IL-6 ([4]; 50 mg/kg i.p., i.p. LPS): 13.73 ± 1.56; Change multiple of TNF-α ([4]; 50 mg/kg i.p., i.p. LPS): 5.55 ± 0.86; Change multiple of iNOS ([4]; 50 mg/kg i.p., i.p. LPS): 5.42 ± 1.02; Lung index (%) ([4]; 50 mg/kg intraperitoneal 3 days): 0.672 ± 0.014 %; Body weight (Day 1) ([4]; 50 mg/kg intraperitoneal): 25.34 ± 0.57; Body weight (Day 2) ([4]; 50 mg/kg intraperitoneal): 26.16 ± 1.22; Body weight (Day 3) ([4]; 50 mg/kg intraperitoneal): 27.01 ± 1.08; pathological lung injury compared with the model group, in words ([4]; 50 mg/kg, i.p. LPS): obviously relieving pathological lung injury; anti-inflammatory activity (inhibition of expression of TNF-α in macrophages), in words ([5]; 10 μM, RAW264.7, LPS): better anti-inflammatory activity than other derivatives; activity at 0.1 µM ([5]; Mus musculus, RAW264.7, 0.1 μM, RAW264.7, LPS 100 ng/mL, read-out: Percentage of TNF-α in a model group (%)): 99.83 ± 0.89%; activity at 0.5 µM ([5]; Mus musculus, RAW264.7, 0.5 μM, RAW264.7, LPS 100 ng/mL, read-out: Percentage of TNF-α in a model group (%)): 98.1 ± 1.56%; activity at 1 µM ([5]; Mus musculus, RAW264.7, 1 μM, RAW264.7, LPS 100 ng/mL, read-out: Percentage of TNF-α in a model group (%)): 94.38 ± 0.45%; activity at 2 µM ([5]; Mus musculus, RAW264.7, 2 μM, RAW264.7, LPS 100 ng/mL, read-out: Percentage of TNF-α in a model group (%)): 88.6%; activity at 5 µM ([5]; Mus musculus, RAW264.7, 5 μM, RAW264.7, LPS 100 ng/mL, read-out: Percentage of TNF-α in a model group (%)): 83.7%; activity at 10 µM ([5]; Mus musculus, RAW264.7, 10 μM, RAW264.7, LPS 100 ng/mL (Table 3), read-out: Percentage of TNF-α in a model group (%)): 51.2%; activity at 20 µM ([5]; Mus musculus, RAW264.7, 20 μM, RAW264.7, LPS 100 ng/mL, read-out: Percentage of TNF-α in a model group (%)): 39.4%; activity at 10 µM ([5]; Mus musculus, RAW264.7, 2 h, 10 μM, 3 h pretreatment, LPS 100 ng/mL 2 h, RAW264.7, read-out: Percentage of TNF-α in a model group (%)): 39.9 ± 2.88%; effective dose for inhibiting the expression of TNF-α in the macrophages ([5]; RAW264.7, LPS): 2 to 20 µM
